Experimental data from patent US12281299B2, “Control of nitrogen fixation in rhizobia that associate with cereals” (Massachusetts Institute of Technology, priority 2019, dated 2025).

System: A. caulinodans ORS571
Experiment: not given
Type: cell-based, Azorhizobium caulinodans
Conditions: sensor controlling NifA(L94Q/D95Q)/RpoN expression in A. caulinodans
Procedure: Nitrogenase assays (A. caulinodans and P. stutzeri). Cultures were initiated by inoculating a single colony into 0.2 mL of TY medium supplemented with appropriate antibiotics in 96-deepwell plates and grown overnight at 37° C. and 30° C. for A. caulinodans and P. stutzeri, respectively, 900 rpm in a Multitron incubator. 5 μl of overnight cultures was diluted into 500 μl of UMS medium with 30 mM lactate and 10 mM NH4Cl and appropriate antibiotics in 96-deepwell and incubated for 24 h at 37° C. and 30° C. for A. caulinodans and P. stutzeri, respectively, 900 rpm in a Multitron incubator. Cultures were diluted to an OD600 of 0.4 into 2 mL of UMS medium plus 30 mM lactate supplemented with appropriate antibiotics and an inducer (if necessary) in 10 mL glass vials with PTFE-silicone septa screw caps. Headspace in the vials was replaced with 99% argon plus 1% oxygen gas using a vacuum manifold. Acetylene was injected to 10% (vol/vol) into each culture vial to begin the reaction. The acetylene reduction was carried out for 20 h at 30° C. with shaking at 250 rpm, followed by quenching via the addition of 0.5 mL of 4 M NaOH to each vial.
Ethylene quantification. Ethylene production was analyzed by gas chromatography using an Agilent 7890A GC system (Agilent Technologies, Inc., CA USA) equipped with a PAL headspace autosampler and flame ionization detector as follows. An aliquot of 0.5 mL headspace preincubated to 35° C. for 30 s was injected and separated for 4 min on a GS-CarbonPLOT column (0.32 mm×30 m, 3 microns; Agilent) at 60° C. and a He flow rate of 1.8 mL/min. Detection occurred in a FID heated to 300° C. with a gas flow of 35 mL/min H2 and 400 mL/min air. Acetylene and ethylene were detected at 3.0 min and 3.7 min after injection, respectively. Ethylene production was quantified by integrating the 3.7 min peak using Agilent GC/MSD ChemStation Software.

| Compound | dynamic range of nitrogenase activity | nitrogenase activity higher than the wild-type |
| --- | --- | --- |
| N=C(N)NCCCC(NC(CCC(=O)O)C(=O)O)C(=O)O (centres unmarked) [nopaline, Nopaline] | 412 fold | – |
| CC(NC(CCCNC(=N)N)C(=O)O)C(=O)O (centres unmarked) [octopine, Octopine] | – | 40% |
| O=C([O-])c1ccccc1O.[Na+] [salicylic acid, Salicylic acid sodium salt] | 1000 fold | – |

System: R. sp. IRBG74
Experiment: Genetic part characterization for Rhizobia (promoters, RBSs, terminators, inducible systems; fluorescence reporter, flow cytometry)
Type: cell-based, Rhizobium sp.
Conditions: synthetic RBS strength in R. sp. IRBG74; plasmid pMR-40, IPTG-inducible system, 1 mM IPTG induction
Text: Construction and characterization genetic parts for Rhizobia. Genetic part libraries were built on a pBBR1-ori plasmid pMR-1 using Gibson assembly (New England Biolabs, Cat # E2611). The fluorescence proteins, GFPmut3b and mRFP1 were used as reporters. The Anderson promoter library (Anderson, J. et al. BglBricks: A flexible standard for biological part assembly. 4, 1 (2010)) on the BioBricks Registry were utilized for the characterization of constitutive promoters (FIGS. 11A-11C). To characterize inducible promoters, a regulator protein is constitutively expressed by the PlacIq promoter, and GFP expression is driven by a cognate inducible promoter from the opposite direction, facilitating replacement of the reporter with gene of interest (e.g., T7 RNAP and nifA) and transfer of the controller unit across different plasmid backbones for diverse microbes. The following combinations of cognate regulators and inducible promoters were characterized. IPTG inducible LacI-A1lacO1, DAPG inducible PhlF-PPhl, aTc inducible TetR-PTet, 3OC6HSL inducible LuxR-PLux, salicylic acid inducible NahR-PSal, and cuminic acid inducible CymR-PCym systems were optimized for R. sp. IRBG74 (FIG. 14). Opine inducible OccR-Pocc, and nopaline inducible NocR-Pnoc systems were optimized for A. caulinodans (FIGS. 20A-20F and Tables 9 and 10). For RBS characterization, an IPTG-inducible GFP expression plasmid pMR-40 was used and GFP was expressed to the highest levels with 1 mM IPTG (FIGS. 12A-12B). RBS library for GFP was designed using the RBS library calculator at the highest-resolution mode, and the 3′ end of the 16S rRNA sequences were adjusted according to the species (3′-ACCTCCTTC-5′ for R. sp. IRBG74). Terminators for T7 RNAP were characterized by placing a terminator between two fluorescence reporters expressed from a single T7 wild-type promoter located upstream of the first fluorescence protein GFP. The expression of the two fluorescence proteins is enabled by the controller strain MR18 encoding the IPTG-inducible T7 RNAP system by 1 mM IPTG (FIGS. 13A-13B). The terminator strength (Ts) was determined by normalizing fluorescence levels of a terminator construct by a reference construct pMR-66 where a 40 bp spacer was placed between the reporters. All genetic parts for Rhizobia were characterized as follows.

| Compound | Strength (GFP, au) |
| --- | --- |
| RB5r9 (DNA TAACAATTTCACACATCTAGAGCTAATCATCTCGTACTAATGAGGCAAGTAATG; chemistry not fully specified) | 1593.5 au |
| RBST-10 (DNA TAACAATTTCACACATCTAGAGCTAATCATCGCGTACTAATGAGGCAAGTAATG; chemistry not fully specified) | 1590 au |
| RBST-11 (DNA TAACAATTTCACACATCTAGAGCTAATCATCGCGTACTCACGAGGCAAGTAATG; chemistry not fully specified) | 1554 au |
| RBST-12 (DNA TAACAATTTCACACATCTAGAGCTAATCATCGCGTACTAAAAAGGCAAGTAATG; chemistry not fully specified) | 1138 au |
| RBST-13 (DNA TAACAATTTCACACATCTAGAGCTAATCTTCGCGTACTAAAAAGGCAAGTAATG; chemistry not fully specified) | 895.5 au |
| RBST-14 (DNA TAACAATTTCACACATCTAGAGCTAATCTTCGCGTACTAAGAAGGCAAGTAATG; chemistry not fully specified) | 632.5 au |
| RBST-15 (DNA TAACAATTTCACACATCTAGAGCTAATCATCTCGTACTAAATAGGCAAGTAATG; chemistry not fully specified) | 648.5 au |
| RBST-16 (DNA TAACAATTTCACACATCTAGAGCTAATCATCTCGTACTAATAAGGCAAGTAATG; chemistry not fully specified) | 532 au |
| RBST-17 (DNA TAACAATTTCACACATCTAGAGCTAATCTTCTCGTACTAAAGAGGCAAGTAATG; chemistry not fully specified) | 488 au |
| RBST-18 (DNA TAACAATTTCACACATCTAGAGCTAATCATCGCGTACTCAATAGGCCAGTAATG; chemistry not fully specified) | 305.5 au |
| RBST-19 (DNA TAACAATTTCACACATCTAGAGCTAATCATCGCGTACTAAGTAGGCAAGTAATG; chemistry not fully specified) | 242 au |
| RBST-20 (DNA TAACAATTTCACACATCTAGAGCTAATCATCTCGTACTAACGAGGCAAGTAATG; chemistry not fully specified) | 248 au |
| RBST-21 (DNA TAACAATTTCACACATCTAGAGCTAATCATCGCGTACTCAGCAGGCAAGTAATG; chemistry not fully specified) | 183 au |
| RBST-22 (DNA TAACAATTTCACACATCTAGAGCTAATCTTCGCGTACTAAGTAGGCAAGTAATG; chemistry not fully specified) | 130 au |
| RBST-23 (DNA TAACAATTTCACACATCTAGAGCTAATCTTCGCGTACTAATTAGGCAAGTAATG; chemistry not fully specified) | 84.4 au |
| RBST-24 (DNA TAACAATTTCACACATCTAGAGCTAATCTTCTCGTACTAACAAGGCAAGTAATG; chemistry not fully specified) | 75.15 au |
| RBST-25 (DNA TAACAATTTCACACATCTAGAGCTAATCATCTCGTACTCAATAGGCAAGTAATG; chemistry not fully specified) | 45.45 au |
| RBST-26 (DNA TAACAATTTCACACATCTAGAGCTAATCATCTCGTACTAAGCACGCAAGTAATG; chemistry not fully specified) | 36 au |
| RBST-27 (DNA TAACAATTTCACACATCTAGAGCTAATCATCGCGTACTAACTACGCAAGTAATG; chemistry not fully specified) | 12.2 au |
| RBST-28 (DNA TAACAATTTCACACATCTAGAGCTAATCTTCGCGTACTAAGAACGCAAGTAATG; chemistry not fully specified) | 13 au |
| RBST-29 (DNA TAACAATTTCACACATCTAGAGCTAATCTTCGCGTACTAAAAACGCAAGTAATG; chemistry not fully specified) | 4.6 au |
| RBST-30 (DNA TAACAATTTCACACATCTAGAGCTAATCTTCGCGTACTAACAACGCAAGTAATG; chemistry not fully specified) | 2.95 au |
| RBST-31 (DNA TAACAATTTCACACATCTAGAGCTAATCTTCTCGTACTCATGACGCAAGTAATG; chemistry not fully specified) | 1.45 au |
